The test system of one test is PP2A. The following applies: cited from earlier work. An excerpt:
The positive and negative LC–HRMS spectra of 1 were consistent with a molecular formula of C55H77O13N7 which, together with the presence of a prominent [M + Na]^+ adduct ion, a weak neutral loss of m/z 134.0727, and the late retention time, were consistent with a non-Arg-containing MC. […] The negative ion MS/MS spectrum obtained from the FS/DIA (full scan/data indepe ...

The target in test [1] is Protein phosphatase 2A (PP2A) (Homo sapiens, UniProt P67775). In kind it is biochemical. The following applies: for IC50: read-out: IC50 (PP2A inhibition).
Chain of Protein phosphatase 2A (PP2A) (P67775 whole entry, looked up): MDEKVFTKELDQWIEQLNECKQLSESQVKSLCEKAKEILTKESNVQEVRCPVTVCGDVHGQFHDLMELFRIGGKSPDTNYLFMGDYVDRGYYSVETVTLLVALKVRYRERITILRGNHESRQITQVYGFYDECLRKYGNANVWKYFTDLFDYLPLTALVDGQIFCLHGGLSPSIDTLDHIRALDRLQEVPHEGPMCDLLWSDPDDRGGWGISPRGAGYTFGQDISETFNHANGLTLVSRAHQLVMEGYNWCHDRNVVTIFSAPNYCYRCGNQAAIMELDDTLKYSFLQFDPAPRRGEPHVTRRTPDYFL

The values below come from article PMC7076857 (Toxins, 2020).

What is called IC50 is the concentration needed to halve the response being measured.

≈ marks a conversion by molar mass, not a printed value. Like-named read-outs stand apart in the source and are kept apart here. Numbered stars: 1 amine (or outer) side, 2 acyl side, 3 side chain; on linkers, the order of the positions; unused ones are H or OH. Bridge positions count the residues as written; N and C are the ends. Square brackets hold non-standard residues; d marks the D form. Peptide text beside a SMILES is read from it. Adda = CO[C@@H](Cc1ccccc1)[C@@H](C)/C=C(C)/C=C/[C@H](N[*:1])[C@H](C)C(=O)[*:2]; dAsp(3S-Me) = C[C@H](C(=O)[*:3])[C@@H](N[*:1])C(=O)[*:2]; d(γGlu) = O=C(O)[C@@H](CCC(=O)[*:2])N[*:1]; NMeDha = C=C(NC)C(=O)O

Take MC-LF [Compound 9]: in the test on PP2A (PP2A assay, MC-LF vs. MC-LR, ref 21 (Ikehara et al.)), the “IC50 relative to MC-LR (2), fold higher” value is recorded as 3 fold. Further, the IC50 in the test on PP2A (ref 21 (Ikehara et al.)) is 0.096 nM.
As to `C=C1C(=O)N[C@H](C)C(=O)N[C@@H](CC(C)C)C(=O)N[C@@H](C(=O)O)[C@H](C)C(=O)N[C@@H](CCCNC(=N)N)C(=O)N[C@@H](/C=C/C(C)=C/[C@H](C)[C@H](Cc2ccccc2)OC)[C@H](C)C(=O)N[C@@H](C(=O)O)CCC(=O)N1C` [Compound 2, MC-LR] (R[Adda][d(γGlu)][NMeDha][dA]L[dAsp(3S-Me)]-OH; lactam N-7), in test [1], the “IC50 (PP2A inhibition)” value stood at 0.62 ng/mL (≈ 0.623 nM) and the IC50 was 0.62 nM. For the same molecule, the IC50 in the test with PP2A was 0.032 nM.
Take `C=C1C(=O)N[C@H](CC(C)C)C(=O)N[C@@H](CC(C)C)C(=O)N[C@@H](C(=O)O)[C@H](C)C(=O)N[C@@H](Cc2ccc(O)cc2)C(=O)N[C@@H](/C=C/C(C)=C/[C@H](C)[C@H](Cc2ccccc2)OC)[C@H](C)C(=O)N[C@@H](C(=O)O)CCC(=O)N1C` [Compound 1, [D-Leu^1]MC-LY] (Y[Adda][d(γGlu)][NMeDha][dL]L[dAsp(3S-Me)]-OH; lactam N-7): in test [1], the “IC50 (PP2A inhibition)” value is listed as 0.80 ng/mL (≈ 0.766 nM), the “Potency in PP2A inhibition assay relative to MC-LR (2)” value is “essentially the same as for MC-LR (2)” and the IC50 amounted to 0.76 nM.
